ChEMBL document CHEMBL5137063, “Medicinal Chemistry and Chemical Biology of Nurr1 Modulators: An Emerging Strategy in Neurodegeneration” (J Med Chem, 2022)

How the values were obtained:
[1] = biological target: T1, Nuclear receptor subfamily 4 group A member 2 (Homo sapiens, UniProt P43354); experiment: Agonist activity at human Nurr1 measured by Gal4-Nurr1 hybrid reporter gene assay
[2] = biological target: T1, Nuclear receptor subfamily 4 group A member 2; experiment: Antagonist activity at full length human Nurr1 expressed in HEK293T cells co-expressing 3xNBRE3-luciferase at 50 uM incubated for 18 hrs by luciferase transactivation assay relative to control; type: cell-based; set-up: scale not given: the % may be the effect or the level left
[3] = biological target: T1, Nuclear receptor subfamily 4 group A member 2; experiment: Antagonist activity at full length human Nurr1 expressed in MN9D cells co-expressing 3xNBRE3-luciferase at 50 uM incubated for 18 hrs by luciferase transactivation assay relative to control; type: cell-based; set-up: scale not given: the % may be the effect or the level left
[4] = biological target: T2, Nuclear receptor subfamily 4 group A member 2 (Rattus norvegicus, UniProt Q07917); experiment: Agonist activity at Nurr1 in rat N27-A cells measured by NBRE-based luciferase reporter gene assay; type: cell-based
[5] = biological target: T1, Nuclear receptor subfamily 4 group A member 2; experiment: Agonist activity at Nurr1 in human SK-N-BE(2)-C cells measured by Gal4-based luciferase reporter gene assay; type: cell-based
[6] = biological target: T3, Nuclear receptor subfamily 4 group A member 2 (Mus musculus, UniProt Q06219); experiment: Agonist activity at Nurr1 in mouse MN9D cells measured by NBRE-based luciferase reporter gene assay; type: cell-based
[7] = biological target: T1, Nuclear receptor subfamily 4 group A member 2; experiment: Agonist activity at Nurr1 in human SK-N-BE(2)-C cells measured by NBRE-based luciferase reporter gene assay; type: cell-based
[8] = biological target: T3, Nuclear receptor subfamily 4 group A member 2; experiment: Agonist activity at Nurr1 in mouse MN9D cells measured by Gal4-based luciferase reporter gene assay; type: cell-based
[9] = biological target: T2, Nuclear receptor subfamily 4 group A member 2; experiment: Agonist activity at Nurr1 in rat N27-A cells measured by Gal4-based luciferase reporter gene assay; type: cell-based
[10] = biological target: T1, Nuclear receptor subfamily 4 group A member 2; experiment: Agonist activity at Nurr1 ligand binding domain (unknown origin) measured by Gal4-based reporter gene assay
[11] = biological target: T1, Nuclear receptor subfamily 4 group A member 2; experiment: Binding affinity towards Nurr1 ligand binding domain (unknown origin) measured by tryptophan fluorescence spectroscopy

T2 sequence (Q07917 whole entry, the tested form may be a part): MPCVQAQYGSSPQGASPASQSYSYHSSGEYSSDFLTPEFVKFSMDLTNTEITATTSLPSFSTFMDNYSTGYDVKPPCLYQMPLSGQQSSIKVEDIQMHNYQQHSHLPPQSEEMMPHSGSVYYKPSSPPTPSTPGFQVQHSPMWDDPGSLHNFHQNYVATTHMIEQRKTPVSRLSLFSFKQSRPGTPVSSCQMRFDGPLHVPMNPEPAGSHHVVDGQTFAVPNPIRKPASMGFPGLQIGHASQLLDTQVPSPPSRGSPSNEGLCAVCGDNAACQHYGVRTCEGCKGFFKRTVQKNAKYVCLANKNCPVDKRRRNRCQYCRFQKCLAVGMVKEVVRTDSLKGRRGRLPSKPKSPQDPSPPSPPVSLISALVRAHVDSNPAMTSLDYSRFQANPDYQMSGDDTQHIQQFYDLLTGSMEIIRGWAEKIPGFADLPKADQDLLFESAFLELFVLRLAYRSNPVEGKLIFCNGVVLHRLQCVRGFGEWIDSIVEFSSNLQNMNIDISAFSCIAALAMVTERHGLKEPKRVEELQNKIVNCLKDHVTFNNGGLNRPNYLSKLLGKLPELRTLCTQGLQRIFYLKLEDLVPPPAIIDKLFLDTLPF
T3 sequence (Q06219 whole entry): as the sequence (Q07917 whole entry, the tested form may be a part) above, with G134S, R182P counted along it
T1 sequence (P43354 whole entry, the tested form may be a part): as the sequence (Q07917 whole entry, the tested form may be a part) above, with S131T, R182P, D354E counted along it

Work on `Fc1ccc(-c2c[nH]c3ccccc23)cc1` yielded an EC50 [1] of 7.7 µM.
For `CC/C=C\C/C=C\C/C=C\C/C=C\C/C=C\C/C=C\CCC(=O)O`, the Activity [2] was 25% and the Activity [3] was 25%.
In the case of `CCCCC[C@H](O)/C=C/[C@H]1[C@H](O)CC(=O)[C@@H]1CCCCCCC(=O)O` [ALPROSTADIL], the EC50 [4] is reported as 3 µM, the EC50 [5] is reported as 3 µM and the EC50 [6] is reported as 3 µM. For the same compound, the EC50 [7] was 3 µM, the EC50 [8] was 3 µM and the EC50 [9] was 3 µM.
`CCN(CC)Cc1cc(Nc2ccnc3cc(Cl)ccc23)ccc1O` [AMODIAQUINE] was tested, and the EC50 [10] was 20 µM.
In the case of `CCCCC/C=C\C/C=C\C/C=C\C/C=C\CCCC(=O)O` [ARACHIDONIC ACID], the Kd [11] is reported as 50 µM.
`CCCCC/C=C\C/C=C\CCCCCCCC(=O)O` [LINOLEIC ACID] gave a Kd [11] of 50 µM.
`CCCCCCCC/C=C\CCCCCCCC(=O)O` [OLEIC ACID] gave a Kd [11] of 50 µM.
`CCCCC[C@H](O)/C=C/[C@H]1C=CC(=O)[C@@H]1CCCCCCC(=O)O` [PROSTAGLANDIN A1] showed an EC50 [4] of 5 µM, an EC50 [5] of 5 µM and an EC50 [6] of 5 µM. It also gave an EC50 [7] of 5 µM, an EC50 [8] of 5 µM and an EC50 [9] of 5 µM.
